Results from PMC10384639, “Increased In Vivo Exposure of N-(4-Hydroxyphenyl) Retinamide (4-HPR) to Achieve Plasma Concentrations Effective against Dengue Virus” (Pharmaceutics, 2023).
Where “and” joins values, the source holds several entries; their conditions need not be identical. Equal entries are not always repeated. Where two headings read alike, the source gives them in different places.

Experiments:
[1] = Single-dose IV PK of 4-HPR in mice with and without ABT; type: in vivo, male C57Bl/6 mice; conditions: for half-life / AUC(0-inf) / clearance / Vd: plasma; for half-life: read-out: Apparent t1/2 (converted); for AUC(0-inf): read-out: Plasma AUC0-inf; for Vd: read-out: Plasma VSS
Method: C57Bl/6 mice (22.6–28.7 g) having access to food and water ad libitum throughout the pre- and post-dose sampling period were dosed with 4-HPR either orally by gavage (2–10 mL/kg, depending upon formulation) or IV by bolus injection into the lateral tail vein (50 μL/animal, 2 mL/kg), and blood samples were collected up to 49 h post-dose by either submandibular bleed or terminal cardiac puncture (n = 3–5 mice per timepoint for each formulation) with a maximum of four samples from each mouse. Blood samples were mixed with heparin, potassium fluoride and complete protease inhibitor cocktail (Roche Diagnostics, Mannheim, Germany), centrifuged and supernatant plasma was removed and stored at −80 °C until analysis by LC-MS. Specifics of formulations used in PK experiments are detailed in Supplementary Table S1.
For in vivo CYP inhibition experiments, repeat oral doses of ABT (50 mg/kg b.i.d commencing 4 h before 4-HPR administration, 5 mL/kg by gavage) were administered according to a regimen shown to maintain ongoing CYP inhibition. Blood samples were collected from ABT-treated mice for up to 72 h after dosing 4-HPR.
For 4-HPR quantification, proteins were precipitated from plasma samples using acetonitrile (2-fold volume ratio) prior to analysis using a Waters Acquity Ultra-High Performance Liquid Chromatography (UHPLC) system coupled to a Waters Xevo TQ MS system (Waters Corporation, Milford, MA, USA). Chromatographic separation was performed using a C8 reverse phase column (Ascentis Express RP C8, 50 × 2.1 mm, 2.7 μm, Merck KGaA, Darmstadt, Germany) and a 3 μL injection volume. Gradient elution (methanol-water gradient with 0.05% formic acid) was performed at a flow rate of 0.4 mL/min, cycle time of 4 min, with detection by positive electrospray ionisation in multiple-reaction monitoring mode. Then, 4-HPR standards (10,000–0.5 ng/mL) were prepared in blank plasma, with diazepam as an internal standard (10 μL of 5 μg/mL in 50% acetonitrile/water per sample). For 4-HPR, the retention time was 2.97 min, m/z transition 392.23 > 161.15, cone voltage 30 V and CID 20 V.
The dose administered to each mouse was calculated on the basis of the pre-dose body weight, the volume of formulation administered, and the 4-HPR concentration in the formulation. The plasma concentration versus time profile was defined by the average plasma concentration at each sample time, and PK parameters were calculated using non-compartmental methods (PKSolver Version 2.0) using the average dose administered to the dosing group.
To illustrate the differences in 4-HPR plasma exposure profiles that would be expected in mice upon repeat-dose administration (b.i.d, 10 h/14 h at 20 mg/kg) of the different formulations, profiles were simulated using a simple compartmental PK approach. Initially, a linear 2-compartment model was fitted (PKSolver, Version 2.0) to the mean plasma concentration-time profile obtained after bolus IV administration of 4-HPR. The parameter estimates thus obtained (i.e., V1, k10, k12 and k21—see Supplementary Table S2) were considered to define the systemic disposition of 4-HPR and were fixed during simulation of the oral profiles. Oral profiles were simulated using a differential equation-based compartmental model scripted in Berkeley Madonna (version 8.3.1.8). Systemic disposition parameters were fixed as described above, under the assumption that the post-absorption distribution and elimination of 4-HPR was independent of the formulation administered. Bioavailability was fixed at the value determined by non-compartmental analysis, and the first order rate constant for compound absorption was manually varied until the simulated concentration-time profile was in close agreement with the experimental concentration-time data obtained after single-dose administration of pre-dispersed lipid formulation. […] These were obtained by setting the bioavailability (F) to the value determined for each formulation by non-compartmental analysis.

[2] = Equilibrium solubility of 4-HPR in excipients and lipid-based formulations; type: physicochemical
Method: Excipients were weighed directly into glass vials at the indicated concentrations, mixed thoroughly, then transferred to Eppendorf tubes and loaded with an excess of 4-HPR. Formulations were then heated to 37 °C, vortexed extensively (initially every hour) and agitated with a stirrer and incubated at 37 °C in a shaking incubator. Periodically (every 1–3 days), undissolved drug was removed from the formulation by centrifugation (20 min at 2100× g, 37 °C) and 20 mg of supernatant was transferred to new tubes for quantification by UHPLC (stored at −20 °C), with the remaining formulation vortexed and agitated vigorously incubated at 37 °C in a shaking incubator until the next sampling. Samples were dissolved in 1 mL 1:1 chloroform:methanol, then diluted 1:100 in acetonitrile.
In this case, the UHPLC assay used a Shimadzu Nexera X2 UHPLC system (Shimadzu Corporation, Kyoto, Japan), with chromatographic separation on a C18 reverse phase column (Kinetex 2.6 μm C18 100 Å, LC Column 50 × 2.1 mm, Phenomenex Inc., Torrance, CA, USA) at 30 °C, with samples stored at 10 °C in the autosampler until injection (3 μL volume). Isocratic elution (79.95% acetonitrile, 19.95% H2O, 0.1% formic acid) was performed at a flow rate of 0.3 mL/min, with absorbance measured by the photodiode array detector. Then, 4-HPR standards (50–0.521 μg/mL) were created by successive serial dilution of a 50 μg/mL stock standard in acetonitrile, with area under curve at absorbance of 365 nm used to generate a standard curve using LabSolutions software V.5.82.

[3] = Plasma protein binding by Rapid Equilibrium Dialysis; type: in vitro ADME; conditions: 37 °C, corrected for dilution; for % Bound / Fraction Unbound 4-HPR: RED 24 h; for fraction unbound at 24 h, 2000 ng/mL: pH 7.4, RED 24 h, read-out: % Bound
Method: (§1) Protein binding of 4-HPR was assessed in human (pooled, Innovative Research Inc., Novi, MI, USA) and mouse (collected in-house from male C57BL6 mice) plasma via Rapid Equilibrium Dialysis (RED) using pre-saturated dialysis units as previously. Briefly, RED inserts were pre-saturated overnight with 400 ng/mL 4-HPR in PBS, after which solutions were removed and discarded, and 300 µL aliquots of diluted human or mouse plasma (10% v/v in pH 7.4 PBS) containing 4-HPR (2000 ng/mL) were added to the donor chamber of the RED inserts (n = 4/matrix) and dialysed against 500 µL of PBS (containing 40 ng/mL 4-HPR). During the 24 h dialysis period, the RED system was sealed with a gas impermeable film, and the plate was maintained at 37 °C under ambient atmosphere in an orbital plate shaker set at 800 rpm (ThermoMixer C; Eppendorf, Hamburg, Germany). At the end of the dialysis period, aliquots were taken from each donor and dialysate chamber to obtain post-dialysis measures of the total and unbound 4-HPR concentrations, respectively. The measured pH of pre- and post-dialysis donor matrix and dialysate buffer was within pH 7.4 ± 0.1.
Donor and dialysate samples were processed and analysed using a matrix matching approach, and all samples were stored frozen at −80 °C until analysis by LC-MS. Compound binding was assessed on the basis of the measured concentrations in dialysate and donor samples at the end of the dialysis period, assuming that the system was at steady state by 24 h. As the binding assay was performed using diluted plasma, data were corrected for the dilution factor to give a binding value for neat plasma via an established approach which accounts for the shift in equilibria that occurs with protein dilution.

[4] = Stability in diluted plasma matrix; type: in vitro ADME; conditions: diluted human plasma (10% v/v in pH 7.4 PBS)
Method: as §1

[5] = Stability in diluted plasma matrix; type: in vitro ADME; conditions: diluted mouse plasma (10% v/v in pH 7.4 PBS)
DENV [6] = conditions: cited from earlier work
DENV [7] = tested on: DENV; set-up: method as in PMID 24903662; conditions: b.i.d 20 mg/kg 4-HPR, lethal ADE DENV infection; cited from earlier work
ZIKV = tested on: ZIKV; set-up: method as in PMID 33439253; conditions: read-out: In vitro EC50; cited from earlier work
DENV2 = tested on: DENV2; set-up: method as in PMID 25313218; conditions: b.i.d 180 mg/kg, AG129 mouse viremia model; cited from earlier work
[8] = male, C57Bl/6, mouse, in vivo, iv
[9] = male, C57Bl/6, mouse, iv, 2 mg/kg, single-dose 2 mg/kg IV, +ABT (50 mg/kg, b.i.d)
[10] = male, C57Bl/6, mouse, iv, 2 mg/kg, single-dose 2 mg/kg IV, −ABT

For CC1=C(/C=C/C(C)=C/C=C/C(C)=C/C(=O)Nc2ccc(O)cc2)C(C)(C)CCC1 [4-HPR, N-(4-hydroxyphenyl) retinamide], the “Fold increase in exposure with ABT treatment after IV dosage” value ([1]; IV 2 mg/kg, +ABT versus −ABT) was 0.2 fold, the “V1 (2-compartment model estimate)” value ([1]; fit to IV data, −ABT) was 0.233 L/kg and the “k21 (2-compartment model estimate)” value ([1]; fit to IV data, −ABT) was 0.561 h⁻¹. The “k10 (2-compartment model estimate)” value [1, 8] was 1.20 h⁻¹, the “k12 (2-compartment model estimate)” value [1, 8] was 5.42 h⁻¹ and the half-life [1, 9] was 12.1 h. The AUC(0-inf) [1, 9] was 24.5 µM·h, the clearance ([1]; male, C57Bl/6, mouse, iv, 2 mg/kg, single-dose 2 mg/kg IV, +ABT (50 mg/kg, b.i.d), read-out: Plasma CL) was 3.6 mL/min/kg and the Vd [1, 9] was 3.2 L/kg. It also gave a half-life ([1]; male, C57Bl/6, mouse, iv, 2 mg/kg, single-dose 2 mg/kg IV, −ABT, 10% DMSO, 90% PEG400) of 8.1 h, an AUC(0-inf) [1, 10] of 21.6 µM·h and a clearance ([1]; male, C57Bl/6, mouse, iv, 2 mg/kg, single-dose 2 mg/kg IV, −ABT, read-out: Plasma CL) of 4.1 mL/min/kg. For the same compound, the Vd [1, 10] was 1.9 L/kg, the clearance ([1]; male, C57Bl/6, mouse, iv, observed under both conditions (±ABT), read-out: In vivo systemic clearance) was 4.4 mL/min/kg and the “4-HPR Concentration (equilibrium solubility)” value (shortened to “4-HPR Concentration”) ([2]; in Capmul-MCM-EP, 37 °C) was 34 mg/g and 34 ± 4.3 mg/g. For the same compound, the “4-HPR Concentration” value ([2]; in Capryol 90, 37 °C) was 48 ± 6.0 mg/g, the “4-HPR Concentration” value ([2]; in Captex 355 EP/NF, 37 °C) was 14 ± 0.1 mg/g and the “4-HPR Concentration” value ([2]; in Corn oil, 37 °C) was 3.9 ± 0.2 mg/g. For the same compound, the “4-HPR Concentration” value ([2]; in Cremophor EL, 37 °C) was 10 ± 0.2 mg/g, the “4-HPR Concentration” value ([2]; in Ethanol, 37 °C) was 113 mg/g and 113 ± 1.3 mg/g and the “4-HPR Concentration” value ([2]; in Gelucire 44/14, 37 °C) was 6.0 ± 0.2 mg/g. For the same compound, the “4-HPR Concentration” value ([2]; in Kolliphor RH 40, 37 °C) was 5.5 ± 0.6 mg/g, the “4-HPR Concentration” value ([2]; in Labrasol, 37 °C) was 7.3 ± 0.1 mg/g and the “4-HPR Concentration” value ([2]; in Lauroglycol 90, 37 °C) was 39 mg/g and 39 ± 1.4 mg/g. The “4-HPR Concentration” value ([2]; in Maisine 35-1, 37 °C) was 21 ± 7.6 mg/g, the “4-HPR Concentration” value ([2]; in Maisine CC, 37 °C) was 26 ± 1.6 mg/g and the “4-HPR Concentration” value ([2]; in PEG400, 37 °C) was 82 ± 0.7 mg/g. The “4-HPR Concentration” value ([2]; in Polysorbate 80, 37 °C) was 24 ± 4.9 mg/g, the “4-HPR Concentration” value ([2]; in Soybean Oil, 37 °C) was 2.7 ± 0.1 mg/g and the “4-HPR Concentration” value ([2]; in Transcutol, 37 °C) was 217 ± 8.8 mg/g. For the same compound, the “4-HPR Concentration” value ([2]; in Tween 85, 37 °C) was 71 mg/g and 71 ± 9.1 mg/g, the “% Bound” value ([3]; human plasma) was > 99.95% and the “Fraction Unbound 4-HPR” value ([3]; human plasma) was < 0.0005. The fraction unbound at 24 h, 2000 ng/mL ([3]; male, C57BL6, mouse plasma diluted to 10% v/v in PBS) was < 0.0005, the “% Bound” value ([3]; mouse plasma) was > 99.95% and the “Fraction Unbound 4-HPR” value ([3]; mouse plasma) was < 0.0005. For the same compound, the fraction unbound at 24 h, 2000 ng/mL ([3]; pooled human plasma diluted to 10% v/v in PBS) was < 0.0005, the “Stability in diluted plasma” value [4] was “no evidence of any degradation” and the “Stability in diluted plasma” value [5] was “no evidence of any degradation”. The EC50 (DENV [6]; DENV, read-out: In vitro EC50) was 1 to 2 µM, the EC50 (DENV [6]; all four infectious DENV strains in vitro, read-out: EC50) was ~1 µM and the “Protection of infected mice” value (DENV [7]) was 70%. The EC50 (ZIKV) was 1 to 2 µM and the “Reduction of DENV2 viremia” value (DENV2) was > 50 fold.
